The structures appear in SMILES notation.

Nanoluciferase-BRD9 fusion protein, sequence (Q9H8M2 whole entry, the tested form may be a part): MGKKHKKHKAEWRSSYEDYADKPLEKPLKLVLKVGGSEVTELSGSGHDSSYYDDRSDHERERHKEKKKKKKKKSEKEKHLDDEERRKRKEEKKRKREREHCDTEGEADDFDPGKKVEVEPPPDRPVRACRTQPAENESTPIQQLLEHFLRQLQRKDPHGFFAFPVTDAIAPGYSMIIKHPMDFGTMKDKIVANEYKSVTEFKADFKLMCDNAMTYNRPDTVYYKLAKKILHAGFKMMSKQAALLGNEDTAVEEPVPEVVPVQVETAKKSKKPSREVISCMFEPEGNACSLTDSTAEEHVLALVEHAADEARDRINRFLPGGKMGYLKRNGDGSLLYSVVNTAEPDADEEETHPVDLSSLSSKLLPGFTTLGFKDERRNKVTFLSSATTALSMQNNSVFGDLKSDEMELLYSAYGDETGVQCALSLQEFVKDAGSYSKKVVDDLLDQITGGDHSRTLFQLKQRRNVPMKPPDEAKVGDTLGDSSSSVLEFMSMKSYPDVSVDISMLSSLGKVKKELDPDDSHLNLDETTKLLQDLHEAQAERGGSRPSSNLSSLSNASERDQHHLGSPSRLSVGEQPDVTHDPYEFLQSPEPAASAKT

The first experiment deals with Nanoluciferase-BRD9 fusion protein (Homo sapiens (Human), UniProt Q9H8M2). Description: SYO1 BRD9 NanoLuc degradation assay. It counts as cell-based. Particulars: Table 5A; SYO-1 cells expressing 3×FLAG-NLuc-BRD9, 6 hours; read-out: SYO1 BRD9-NanoLuc degradation IC50. The procedure:
Procedure: A stable SYO-1 cell line expressing 3×FLAG-NLuc-BRD9 was generated. On day 0 cells were seeded in 30 μL media into each well of 384-well cell culture plates. The seeding density was 8000 cells/well. […] Subsequently plates were incubated for 6 hours in a standard tissue culture incubator and equilibrated at room temperature for 15 minutes. Nanoluciferase activity was measured by adding 15 μL of freshly prepared Nano-Glo Luciferase Assay Reagent (Promega N1130), shaking the plates for 10 minutes and reading the bioluminescence using an EnVision reader.
DMSO treated cells are employed as High Control (HC) and 1 μM of a known BRD9 degrader standard treated cells are employed as Low Control (LC).
Consider `COc1cc(-c2cn(C)c(=O)c3cnccc23)cc(OC)c1CN(C)CCOCCN1CCN(c2ccc3c(c2)C(=O)N(C2CCC(=O)NC2=O)C3=O)CC1` (stereo not shown) [Compound D46, 5-(4-(2-(2-((2,6-dimethoxy-4-(2-methyl-1-oxo-1,2-dihydro-2,7-naphthyridin-4-yl)benzyl)(methyl)amino)ethoxy)ethyl)piperazin-1-yl)-2-(2,6-dioxopiperidin-3-yl)isoindoline-1,3-dione formic acid], for which the DC50 is below 10 nM.
Same read-out and setting: for `COc1cc(-c2cn(C)c(=O)c3cnccc23)cc(OC)c1CN1CCN(CCCCCOc2ccc3c(c2)C(=O)N(C2CCC(=O)NC2=O)C3=O)CC1` (stereo not shown) [Compound D44, 5-((5-(4-(2,6-dimethoxy-4-(2-methyl-1-oxo-1,2-dihydro-2,7-naphthyridin-4-yl)benzyl)piperazin-1-yl)pentyl)oxy)-2-(2,6-dioxopiperidin-3-yl)isoindoline-1,3-dione formic acid] the value was below 10 nM; for `COc1cc(-c2cn(C)c(=O)c3cnccc23)cc(OC)c1CN1CC(N(C)Cc2cccc3c2C(=O)N(C2CCC(=O)NC2=O)C3=O)C1` (stereo not shown) [Compound D28, 4-(((1-(2,6-dimethoxy-4-(2-methyl-1-oxo-1,2-dihydro-2,7-naphthyridin-4-yl)benzyl)azetidin-3-yl)(methyl)amino)methyl)-2-(2,6-dioxopiperidin-3-yl)isoindoline-1,3-dione], 100 to 1000 nM.
In the case of `COc1cc(-c2cn(C)c(=O)c3cnccc23)cc(OC)c1CN1CC(CC(=O)N2CC3(CCN(c4ccc5c(c4)C(=O)N(C4CCC(=O)NC4=O)C5=O)C3)C2)C1` (stereo not shown) [Compound D77], the DC50 was 100 to 1000 nM.

The same experiment, now with this note: Table 5B; SYO-1 cells expressing 3×FLAG-NLuc-BRD9, 6 hours; read-out: SYO1 BRD9-NanoLuc degradation IC50.
`COc1cc(-c2cc(C)c(=O)n(C)c2)cc(OC)c1CN1CCC(CCN2CCN(C3CCC(=O)NC3=O)C(=O)C2)CC1` (stereo not shown) [Compound D334]: the DC50 is above 1000 nM.
As for `COc1cc(-c2cn(C)c(=O)c3cnccc23)cc(OC)c1CN(C)CCCCN1CC2(CC(Oc3ccc4c(c3)C(=O)N(C3CCC(=O)NC3=O)C4=O)C2)C1` (stereo not shown) [Compound D251], the DC50 was below 10 nM.
Still for that read-out and setting: next, `COc1cc(-c2cn(C)c(=O)c3cnccc23)cc(OC)c1CN1CCC(n2cc(COc3ccc4c(c3)C(=O)N(C3CCC(=O)NC3=O)C4=O)nn2)CC1` (stereo not shown) [Compound D289]: below 10 nM; `COc1cc(-c2cn(C)c(=O)c3cnccc23)cc(OC)c1CN1CC(CC(=O)N[C@@H]2C[C@@]23CCN(c2ccc4c(c2)C(=O)N(C2CCC(=O)NC2=O)C4=O)C3)C1` (stereo partly shown) [Compound D232]: 10 to 100 nM.
Regarding `COc1cc(-c2cn(C)c(=O)c3cnccc23)cc(OC)c1CN1CC(n2cc(COC3CN(c4ccc5c(c4)C(=O)N(C4CCC(=O)NC4=O)C5=O)C3)nn2)C1` (stereo not shown) [Compound D301], the DC50 was below 10 nM.
As for `COc1cc(-c2cc(C)c(=O)n(C)c2)cc(OC)c1CN1CCC2(CC1)CN(c1ccc3c(c1)C(=O)N(C1CCC(=O)NC1=O)C3=O)C2` (stereo not shown) [Compound D331], the DC50 was below 10 nM.
For the compound `COc1cc(-c2cn(C)c(=O)c3cnccc23)cc(OC)c1CN(C)C(=O)CCCCNC1CC2(C1)CN(c1ccc3c(c1)C(=O)N(C1CCC(=O)NC1=O)C3=O)C2` (stereo not shown) [Compound D204], the DC50 is below 10 nM.
In the case of `COc1cc(-c2cn(C)c(=O)c3cnccc23)cc(OC)c1CN(C)CCCCN1CC2(C1)CN(c1ccc3c(c1)C(=O)N(C1CCC(=O)NC1=O)C3=O)C2` (stereo not shown) [Compound D254], the DC50 is below 10 nM.
Consider `COc1cc(-c2cn(C)c(=O)c3cnccc23)cc(OC)c1CN(C)C(=O)CCCCN1CCCC2(CC(Oc3ccc4c(c3)C(=O)N([C@@H]3CCC(=O)NC3=O)C4=O)C2)C1` (stereo partly shown) [Compound D261], for which the DC50 is below 10 nM.
On the same count and under the same terms, next, `COc1cc(-c2cn(C)c(=O)c3cnccc23)cc(OC)c1CN1CC(CC(=O)N2CCC3(C2)CN(c2ccc4c(c2)C(=O)N(C2CCC(=O)NC2=O)C4=O)C3)C1` (stereo not shown) [Compound D193]: 100 to 1000 nM; `COc1cc(-c2cc(C)c(=O)n(C)c2)cc(OC)c1CN1CCC2(C1)CN(c1ccc3c(c1)C(=O)N(C1CCC(=O)NC1=O)C3=O)C2` (stereo not shown) [Compound D337]: below 10 nM; `COc1cc(-c2cn(C)c(=O)c3cnccc23)cc(OC)c1CN1CCN(C(=O)CC#Cc2ccc3c(c2)C(=O)N(C2CCC(=O)NC2=O)C3=O)CC1` (stereo not shown) [Compound D316]: below 10 nM.
Still for that read-out and setting: next, `COc1cc(-c2cn(C)c(=O)c3cnccc23)cc(OC)c1CN(C)CCCn1cc(CN2CC(Oc3ccc4c(c3)C(=O)N(C3CCC(=O)NC3=O)C4=O)C2)nn1` (stereo not shown) [Compound D285]: 100 to 1000 nM.
The same measure, in the same setting: for `COc1cc(-c2cn(C)c(=O)c3cnccc23)cc(OC)c1CN1CCC2(C1)CN(C(=O)C#Cc1ccc3c(c1)C(=O)N(C1CCC(=O)NC1=O)C3=O)C2` (stereo not shown) [Compound D241] the value was below 10 nM; for `COc1cc(-c2cn(C)c(=O)c3cnccc23)cc(OC)c1CN(C)C(=O)CCCCN1CC2(CCN(c3ccc4c(c3)C(=O)N(C3CCC(=O)NC3=O)C4=O)CC2)C1` (stereo not shown) [Compound D201], below 10 nM; for `COc1cc(-c2cn(C)c(=O)c3cnccc23)cc(OC)c1CN(C)C(=O)CCCCN1CC(Oc2ccc3c(c2)C(=O)N(C2CCC(=O)NC2=O)C3=O)C1` (stereo not shown) [Compound D229], below 10 nM.
For the compound `COc1cc(-c2cn(C)c(=O)c3cnccc23)cc(OC)c1CN(C)CC(=O)NCCCCCOc1ccc(-c2ccc3c(c2)C(=O)N(C2CCC(=O)NC2=O)C3=O)cc1` (stereo not shown) [DD8], the DC50 is below 10 nM.
For the compound `COc1cc(-c2cn(C)c(=O)c3cnccc23)cc(OC)c1CN(C)CCCCN1CCC2(C1)CN(c1ccc3c(c1)C(=O)N(C1CCC(=O)NC1=O)C3=O)C2` (stereo not shown) [Compound D226], the DC50 was below 10 nM.
Still for that read-out and setting: for `COc1cc(-c2cn(C)c(=O)c3cnccc23)cc(OC)c1CN(C)C(=O)CCCCNC1CC2(CCN(c3ccc4c(c3)C(=O)N(C3CCC(=O)NC3=O)C4=O)CC2)C1` (stereo not shown) [Compound D256] the value was below 10 nM.
Turning to `COc1cc(-c2cc(C)c(=O)n(C)c2)c(OC)cc1CN1CC(CN2CCC3(CC2)CN(c2ccc4c(c2)C(=O)N(C2CCC(=O)NC2=O)C4=O)C3)C1` (stereo not shown) [Compound D353], the DC50 is below 10 nM.
The same measure, in the same setting: next, `CNC(=O)N(C)Cc1cc(-c2cc(OC)c(CN3CC(CN4CCC5(CC4)CN(c4ccc6c(c4)C(=O)N(C4CCC(=O)NC4=O)C6=O)C5)C3)c(OC)c2)cn(C)c1=O` (stereo not shown) [Compound D355]: above 1000 nM; `COc1cc(-c2cn(C)c(=O)c3cnccc23)cc(OC)c1CN1CC(n2cc(COC3CCN(c4ccc5c(c4)C(=O)N(C4CCC(=O)NC4=O)C5=O)CC3)nn2)C1` (stereo not shown) [Compound D302]: below 10 nM; `COc1cc(-c2cn(C)c(=O)c3cnccc23)cc(OC)c1CN1CC(CC(=O)N2CCC3(CC2)CN(c2ccc4c(c2)C(=O)N(C2CCC(=O)NC2=O)C4=O)C3)C1` (stereo not shown) [Compound D180]: below 10 nM.
In the case of `COc1cc(-c2cn(C)c(=O)c3cnccc23)cc(OC)c1CN1CCC2(CC1)CCN(CC#Cc1ccc3c(c1)C(=O)N(C1CCC(=O)NC1=O)C3=O)C2` (stereo not shown) [Compound D308], the DC50 was below 10 nM.
In the case of `COc1cc(-c2cn(C)c(=O)c3cnccc23)cc(OC)c1CN1CC(CC(=O)NC2CCC23CN(c2ccc4c(c2)C(=O)N(C2CCC(=O)NC2=O)C4=O)C3)C1` (stereo not shown) [Compound D209], the DC50 was 100 to 1000 nM.
Consider `COc1cc(-c2cn(C)c(=O)c3ccccc23)cc(OC)c1CN1CC(CN2CCC3(CC2)CN(c2ccc4c(c2)CN(C2CCC(=O)NC2=O)C4=O)C3)C1` (stereo not shown) [Compound D360], for which the DC50 is below 10 nM.
Same read-out and setting: next, `COc1cc(-c2cn(C)c(=O)c3cnccc23)cc(OC)c1CN1CC2(CCN(C(=O)CC#Cc3ccc4c(c3)C(=O)N(C3CCC(=O)NC3=O)C4=O)C2)C1` (stereo not shown) [Compound D311]: 10 to 100 nM.

Still in this experiment, the particulars now being: Table 5C; SYO-1 cells expressing 3×FLAG-NLuc-BRD9, 6 hours; read-out: SYO1 BRD9-NanoLuc degradation IC50.
As to `COc1cc(-c2cn(C)c(=O)cc2C)cc(OC)c1CN1CCN(c2ccc3c(c2)C(=O)N(C2CCC(=O)NC2=O)C3=O)CC1` (stereo not shown) [Compound D436], the DC50 is below 10 nM.
Still for that read-out and setting: for `COc1cc(-c2cn(C)c(=O)c3cnn(C)c23)cc(OC)c1CN1CCC2(CC1)CN(c1ccc3c(c1)C(=O)N(C1CCC(=O)NC1=O)C3=O)C2` (stereo not shown) [Compound D413] the value was below 10 nM; for `CCc1cc(-c2cn(C)c(=O)c3cnccc23)cc(OC)c1CN1CC(Oc2ccc3c(c2)C(=O)N(C2CCC(=O)NC2=O)C3=O)C1` (stereo not shown) [Compound D385], below 10 nM; for `[2H]C([2H])([2H])n1cc(-c2cc(OC)c(CN3[C@H](C)CN(c4ccc5c(c4)C(=O)N(C4CCC(=O)NC4=O)C5)C[C@H]3C)c(OC)c2)c2nn(C)cc2c1=O` (stereo partly shown) [Compound D424], below 10 nM.
For `COc1cc(-c2cc(C)c(=O)n(C)c2)cc(OC)c1CN1CC(/C=C/c2ccc3c(c2)C(=O)N(C2CCC(=O)NC2=O)C3)C1` (stereo not shown) [Compound D457], the DC50 was below 10 nM.
As to `COc1cc(C(=O)N2CCC3(CC2)CN(c2ccc4c(c2)C(=O)N(C2CCC(=O)NC2=O)C4)C3)cc(-c2cn(C)c(=O)c3cnccc23)c1` (stereo not shown) [Compound D380], the DC50 fell in the range of 10 to 100 nM.
On the same count and under the same terms, for `COc1cc(-c2cn(C)c(=O)c3cnccc23)cc(OC)c1CN1CCC2(CC1)CN(c1ccc3c(c1)CN(C1CCC(=O)NC1=O)C3=O)C2` (stereo not shown) [Compound D374] the value was below 10 nM; for `COc1cc(-c2cn(C)c(=O)c3cnccc23)cc(OC)c1CN1CCC2(CC1)CN(c1ccc3c(c1)C(=O)N(C1CCC(=O)NC1=O)C3)C2` (stereo not shown) [Compound D377], below 10 nM.
The same measure, in the same setting: next, `CCCn1cc(-c2cc(OC)c(CN3CCC4(C3)CN(c3ccc5c(c3)C(=O)N(C3CCC(=O)NC3=O)C5)C4)c(OC)c2)cc(C(F)F)c1=O` (stereo not shown) [Compound D401]: below 10 nM.

These data come from US11414416B1, “Compounds and uses thereof” (Foghorn Therapeutics Inc., priority 2019, dated 2022).
